Assay results published in patent US20230292752A1, “S[…] COMBINATIONS, COMPOSITIONS AND USE THEREOF” (UPL Corporation Limited, priority 2020, published 2023).

Columns and labels:
Format in all cases: in vivo
[1] = system: Setaria weeds; test: Trial on table grapes, clethodim and pyraflufen-ethyl, Setaria weed control; conditions: 28 days after treatment
Procedure: Clethodim and pyraflufen-ethyl were tested on table grapes as individual applications, premix and tank-mix combinations. The products were formulated as an EC formulation and compared with Glufosinate SC. Effect of the treatment was checked on Setaria weeds at 28 days after treatment.

[2] = system: Large crabgrass; test: Pot trial, clethodim and pyraflufen-ethyl, large crabgrass; conditions: 4 DAT
Procedure: (§1) Pot trials for clethodim, pyraflufen-ethyl and their combination (premix and tan-mix) were carried out against green foxtail, large crabgrass and Bermuda grass

[3] = system: Bermuda grass; test: Pot trial, clethodim and pyraflufen-ethyl, Bermuda grass; conditions: 4 DAT
Procedure: as §1

[4] = system: Green foxtail; test: Pot trial, clethodim and pyraflufen-ethyl, green foxtail; conditions: 4 DAT
Procedure: as §1

[5] = system: Setaria pumila SETPU; test: Field trial, clethodim and carfentrazone-ethyl, weed control on Setaria pumila
Procedure: (§2) Field trials were performed to evaluate the efficacy of present combination, clethodim and carfentrazone-ethyl on annual grass control and dicot control in perennial crops. • Grass weeds targeted: LOLSS, BROSS, ECHSS, DIGSS, SETS S • Dicot weeds targeted: ERISS, GERSS, Sonchus sp., CONAR, Malva sp (rosette stage when application, prior stem elongation, prior flowering, prior ground cover) • Application volume: 300 L/ha
(§3) Colby's equation was used to determine the herbicidal effects expected from the mixtures. (See Colby, S. R. Calculation of the synergistic and antagonistic response of herbicide combinations. Weeds 1967, 15, 20-22.)
(§4) The following equation was used to calculate the expected activity of mixtures containing two active ingredients, A and B:
(§5) Expected=A+B−(A×B/100) • A=observed efficacy of active component A at the same concentration as used in the mixture; • B=observed efficacy of active component B at the same concentration as used in the mixture. The ability of the compositions described herein to afford suitable weed control is illustrated by the efficacy data in Table 3 to 10
Biological Activity Observed with Synergistic Mixtures of Clethodim and Carfentrazone in Applications on Setaria pumila SETPU (n=1) 56-59 DAA was represented in table below

[6] = system: Echinochloa crus-galli ECHCG; test: Field trial, clethodim and carfentrazone-ethyl, weed control on Echinochloa crus-galli
Procedure: as §2, §3, §4, §5
Biological Activity Observed with Synergistic Mixtures of Clethodim and Carfentrazone in Applications on Echinochloa crus-galli ECHCG (n=2) 56-59 DAA was represented in table below.

[7] = system: Senecio vulgaris SENVU; test: Field trial, clethodim and carfentrazone-ethyl, weed control on Senecio vulgaris
Procedure: as §2, §3, §4, §5
Biological Activity Observed with Synergistic Mixtures of Clethodim and Carfentrazone in Applications on Senecio vulgaris SENVU (n=1) 14 DAA.

[8] = system: Digitaria sanguinalis DIGSA; test: Field trial, clethodim and carfentrazone-ethyl, weed control on Digitaria sanguinalis
Procedure: as §2, §3, §4, §5
Biological Activity Observed with Synergistic Mixtures of Clethodim and Carfentrazone (Carfentrazone-ethyl) in Applications on Digitaria sanguinalis DIGSA (n=2) at 56-59 DAA was represented in table below.

[9] = system: Sonchus oleraceus SONOL; test: Field trial, clethodim and carfentrazone-ethyl, weed control on Sonchus oleraceus
Procedure: as §2, §3, §4, §5
Biological Activity Observed with Synergistic Mixtures of Clethodim and Carfentrazone in Applications on Sonchus oleraceus SONOL (n=2) 14-15 DAA

[10] = system: Lolium multiflorum LOLMU; test: Field trial, clethodim and carfentrazone-ethyl, weed control on Lolium multiflorum
Procedure: as §2, §3, §4, §5
Biological Activity Observed with Synergistic Mixtures of Clethodim and Carfentrazone in Applications on Lolium multiflorum LOLMU (n=2) 56-59 DAA was represented in table below

[11] = system: Portulaca oleracea POROL; test: Field trial, clethodim and carfentrazone-ethyl, weed control on Portulaca oleracea
Procedure: as §2, §3, §4, §5
Biological Activity Observed with Synergistic Mixtures of Clethodim and Carfentrazone in Applications on Portulaca oleracea POROL (n=1) 14 DAA.

[12] = system: Convolvulus arvensis CONAR; test: Field trial, clethodim and carfentrazone-ethyl, weed control on Convolvulus arvensis
Procedure: as §2, §3, §4, §5
Biological Activity Observed with Synergistic Mixtures of Clethodim and Carfentrazone in Applications on Convolvulus arvensis CONAR (n=2) 14-15 DAA.

[13] = carfentrazone 12 gai/ha, clethodim 0, n=1
[14] = carfentrazone 20 gai/ha, clethodim 0, n=1
[15] = carfentrazone 30 gai/ha, clethodim 0, n=1
[16] = carfentrazone 45 gai/ha, clethodim 0, n=1
[17] = carfentrazone 60 gai/ha, clethodim 0, n=1
[18] = carfentrazone 30 gai/ha, clethodim 0, n=2
[19] = carfentrazone 60 gai/ha, clethodim 0, n=2
[20] = carfentrazone 45 gai/ha, clethodim 0, n=2
[21] = clethodim 72 gai/ha, carfentrazone 0, n=1
[22] = clethodim 120 gai/ha, carfentrazone 0, n=1
[23] = clethodim 180 gai/ha, carfentrazone 0, n=1
[24] = clethodim 120 gai/ha, carfentrazone 0, n=2
[25] = clethodim 180 gai/ha, carfentrazone 0, n=2

CCOC(=O)COc1cc(-c2nn(C)c(OC(F)F)c2Cl)c(F)cc1Cl [Pyraflufen-ethyl]
Weed control % (Observed efficacy) ([1]; 12 g ai/ha, formulated with mineral oil): 0% | % control (observed) ([2]; 24 gai/ha): 10% | % control (observed) ([3]; 24 gai/ha): 10% | % control (observed) ([4]; 24 gai/ha): 20%

CP(=O)(O)CCC(N)C(=O)O (stereo not shown) [Glufosinate]
Weed control % (Observed efficacy) ([1]; 700 g ai/ha): 85% | % control (observed) ([4]; 350 gai/ha): 65% | % control (observed) ([4]; 700 gai/ha): 75%

CCOC(=O)C(Cl)Cc1cc(-n2nc(C)n(C(F)F)c2=O)c(F)cc1Cl (stereo not shown) [Carfentrazone, Carfentrazone-ethyl]
Observed Efficacy (O) in % (56-59 DAA) [5, 13]: 0% | Observed Efficacy (O) in % (56-59 DAA) [5, 14]: 0% | Observed Efficacy (O) in % (56-59 DAA) [5, 15]: 0% | Observed Efficacy (O) in % (56-59 DAA) [5, 16]: 0% | Observed Efficacy (O) in % (56-59 DAA) [5, 17]: 0% | Observed Efficacy (O) in % (56-59 DAA) [6, 18]: 57% | Observed Efficacy (O) in % (56-59 DAA) [6, 19]: 59% | Observed Efficacy (O) in % (14 DAA) [7, 13]: 88% | Observed Efficacy (O) in % (14 DAA) [7, 14]: 92% | Observed Efficacy (O) in % (14 DAA) [7, 15]: 97% | Observed Efficacy (O) in % (14 DAA) [7, 16]: 100% | Observed Efficacy (O) in % (14 DAA) [7, 17]: 100% | Observed Efficacy (O) in % (56-59 DAA) [8, 18]: 13% | Observed Efficacy (O) in % (56-59 DAA) [8, 20]: 27% | Observed Efficacy (O) in % (56-59 DAA) [8, 19]: 17% | Observed Efficacy (O) in % (14-15 DAA) ([9]; carfentrazone 20 gai/ha, clethodim 0, n=2): 89% | Observed Efficacy (O) in % (14-15 DAA) [9, 18]: 92% | Observed Efficacy (O) in % (56-59 DAA) [10, 18]: 50% | Observed Efficacy (O) in % (56-59 DAA) [10, 20]: 50% | Observed Efficacy (O) in % (56-59 DAA) [10, 19]: 50% | Observed Efficacy (O) in % (14 DAA) [11, 14]: 90% | Observed Efficacy (O) in % (14 DAA) [11, 15]: 97% | Observed Efficacy (O) in % (14 DAA) [11, 16]: 100% | Observed Efficacy (O) in % (14 DAA) [11, 17]: 100% | Observed Efficacy (O) in % (14-15 DAA) ([12]; carfentrazone 12 gai/ha, clethodim 0, n=2): 58% | Observed Efficacy (O) in % (14-15 DAA) [12, 19]: 93%

CCSC(C)CC1CC(=O)C(/C(CC)=N/OC/C=C/Cl)=C(O)C1 (stereo not shown) [Clethodim]
Observed Efficacy (O) in % (56-59 DAA) [5, 21]: 43% | Observed Efficacy (O) in % (56-59 DAA) [5, 22]: 50% | Observed Efficacy (O) in % (56-59 DAA) [5, 23]: 94% | Weed control % (Observed efficacy) ([1]; 125 g ai/ha): 85% | Observed Efficacy (O) in % (56-59 DAA) [6, 24]: 84% | Observed Efficacy (O) in % (56-59 DAA) [6, 25]: 97% | Observed Efficacy (O) in % (14 DAA) [7, 21]: 0% | Observed Efficacy (O) in % (14 DAA) [7, 22]: 2% | Observed Efficacy (O) in % (14 DAA) [7, 23]: 0% | Observed Efficacy (O) in % (56-59 DAA) [8, 24]: 95% | Observed Efficacy (O) in % (56-59 DAA) [8, 25]: 97% | Observed Efficacy (O) in % (14-15 DAA) [9, 24]: 13% | % control (observed) ([2]; 250 gai/ha): 20% | % control (observed) ([3]; 250 gai/ha): 20% | Observed Efficacy (O) in % (56-59 DAA) [10, 24]: 52% | Observed Efficacy (O) in % (56-59 DAA) [10, 25]: 74% | Observed Efficacy (O) in % (14 DAA) [11, 22]: 0% | Observed Efficacy (O) in % (14 DAA) [11, 23]: 0% | % control (observed) ([4]; 250 gai/ha): 25% | Observed Efficacy (O) in % (14-15 DAA) ([12]; clethodim 72 gai/ha, carfentrazone 0, n=2): 8% | Observed Efficacy (O) in % (14-15 DAA) [12, 24]: 12% | Observed Efficacy (O) in % (14-15 DAA) [12, 25]: 8%
